From ChEMBL document CHEMBL5126524, “Niemann-Pick C1-Like 1 inhibitors for reducing cholesterol absorption” (Eur J Med Chem, 2022)

Biological target: T1, NPC1-like intracellular cholesterol transporter 1 (Homo sapiens, UniProt Q9UHC9)
T1 sequence (Q9UHC9 whole entry): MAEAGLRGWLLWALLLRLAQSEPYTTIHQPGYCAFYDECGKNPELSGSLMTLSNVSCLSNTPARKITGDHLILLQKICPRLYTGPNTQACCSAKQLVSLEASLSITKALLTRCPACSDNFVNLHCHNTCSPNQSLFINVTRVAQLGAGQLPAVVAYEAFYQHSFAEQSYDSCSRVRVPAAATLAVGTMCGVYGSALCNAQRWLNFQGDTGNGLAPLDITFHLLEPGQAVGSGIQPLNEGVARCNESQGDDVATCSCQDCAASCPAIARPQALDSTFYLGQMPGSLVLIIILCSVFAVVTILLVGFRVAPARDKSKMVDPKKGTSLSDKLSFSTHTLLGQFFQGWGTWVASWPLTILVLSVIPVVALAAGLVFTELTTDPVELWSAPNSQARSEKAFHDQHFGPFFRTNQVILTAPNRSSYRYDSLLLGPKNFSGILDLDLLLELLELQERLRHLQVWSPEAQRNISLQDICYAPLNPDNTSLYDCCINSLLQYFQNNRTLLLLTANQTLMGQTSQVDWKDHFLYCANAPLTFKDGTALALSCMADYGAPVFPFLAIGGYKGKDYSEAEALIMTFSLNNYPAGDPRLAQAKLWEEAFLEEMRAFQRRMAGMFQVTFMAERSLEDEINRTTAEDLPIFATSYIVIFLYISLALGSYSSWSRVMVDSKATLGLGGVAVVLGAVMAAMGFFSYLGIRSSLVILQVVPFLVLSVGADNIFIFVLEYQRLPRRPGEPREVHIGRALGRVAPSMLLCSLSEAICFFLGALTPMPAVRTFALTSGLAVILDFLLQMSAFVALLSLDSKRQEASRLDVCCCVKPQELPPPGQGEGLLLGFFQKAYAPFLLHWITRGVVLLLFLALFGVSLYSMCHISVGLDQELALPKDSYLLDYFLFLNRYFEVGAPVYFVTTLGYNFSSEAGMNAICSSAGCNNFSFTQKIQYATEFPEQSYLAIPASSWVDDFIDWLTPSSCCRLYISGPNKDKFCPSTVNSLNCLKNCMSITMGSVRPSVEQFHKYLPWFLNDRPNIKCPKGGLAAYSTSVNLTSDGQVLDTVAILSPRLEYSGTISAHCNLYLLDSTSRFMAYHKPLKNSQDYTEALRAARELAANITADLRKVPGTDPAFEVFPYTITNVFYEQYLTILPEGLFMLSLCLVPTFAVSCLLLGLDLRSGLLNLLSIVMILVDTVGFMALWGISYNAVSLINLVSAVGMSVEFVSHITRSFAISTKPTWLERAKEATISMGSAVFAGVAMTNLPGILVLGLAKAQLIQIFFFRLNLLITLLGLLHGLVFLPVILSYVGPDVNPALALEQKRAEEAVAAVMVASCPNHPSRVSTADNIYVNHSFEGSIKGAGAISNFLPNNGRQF
Assay: Inhibition of NPC1L1 (unknown origin) assessed as inhibition of cholesterol cellular uptake by BCA colorimetric assay

IC50: 370 nM
Compound: O=C1[C@H](CC[C@H](O)c2ccc(F)cc2)[C@@H](c2ccc(O)cc2)N1c1ccc(F)cc1 [EZETIMIBE]
